Measurements reported in patent publication US11234992B2, “Methods and therapies for treating atherosclerosis and/or hyperlipidemia using oligosaccharides” (The Regents of the University of California, priority 2018, dated 2022).
≈ marks a conversion by molar mass, not a printed value. Entries after “also recorded” stand apart in the source; their conditions may differ.

Assays:
IL-1β = assay: Attenuation of IL-1β cytokine expression (IC50); format: cell-based; conditions: cell type not given
Protocol: (§1) In particular, pooled HMOs (˜100 μg/mL) attenuated LPS-induced M1 polarization and importantly its subsequent cytokine expression (IL-1β, IL-6, etc. mRNA and protein levels) in a mouse macrophage cell line (RAW246) and in primary bone marrow derived macrophages (BMDM). […] Moreover, the attenuation effects remain when cells are stimulated with LipidA instead of LPS, excluding carbohydrate-carbohydrate interactions between LPS and HMOs above the cell surface.

MAPK pathway = assay: Downstream signalling in BMDM, MAPK pathway; format: cell-based, mouse; conditions: in the absence and presence of LPS
Protocol: as §1
To elucidate the receptor, signaling pathway and downstream transcription regulated by 3′SL in BMDM, a three-prong approach is utilized: (a) Whole Transcriptome Shotgun Sequencing (WTSS) is used to identify differentially regulated genes. […] In both approaches, naive BMDM is compared with 3′SL-treated BMDM as well LPS-stimulated BMDM and LPS-treated BMDM co-treated with 3′SL; and (c) A 3′SL affinity matrix is generated to run macrophage plasma membrane and isolate 3′SL binding proteins. Proteins are eluted from the matrix using different salt gradients and analyzed by silvers staining. Relevant elution fraction and individual protein bands are isolated and prepared for mass-spectrometry analysis. The above three-way approach allows for the identification of the receptor, signaling pathway and downstream transcription that is regulated by 3′SL. […]

[1] = test system: LPS-activated Thp-1 cells (human cell line); assay: Cytokine expression in LPS-activated Thp-1 cells; format: cell-based
[2] = test system: mice on a high fat diet (HFD); assay: In vivo atherosclerosis/hyperlipidemia mouse model on high fat diet; conditions: for inflammation in the liver, adipose tissue and arterial vessel wall / systemic secretion of pro-inflammatory cytokines like IL-1β and IL-6: in vitro and in vivo studies
Protocol: FIG. 1 provides a diagram of a mouse model used to test 3′SL effects on atherosclerosis. In particular, the mice are fed a high fat diet for two weeks prior to treatment in order to promote atherosclerosis in the mice. Treatment begins at the end of the second week with 3′SL or vehicle, whereby 3′SL or vehicle are administered to the mice twice daily at a dose of 90 mg/gavage. After 6 weeks of treatment, the mice are sacrificed and atherosclerosis lesions and plaques are assessed.
The complex pathology of atherosclerosis is characterized by the accumulation of lipids, inflammatory cells, and fibrous elements in large- and medium-sized arteries. According to the “response-to-retention” model, focal infiltration and retention of apolipoprotein B (apoB)-containing lipoproteins, such as low-density lipoproteins (LDLs), lipoprotein (a), and triglyceride-rich remnant particles (TRLs), in the subendothelial matrix of the tunica intima of arteries at atherosclerosis-prone sites initiates atherogenesis. Subsequent oxidation, lipolysis, proteolysis, and further aggregation of trapped LDL particles contribute to a chronic inflammatory response characterized by monocyte and T cell migration into the intima. Monocytes entering the plaque differentiate into macrophages and the expression of scavenger receptors result in internalization of modified lipoprotein particles. Lesion macrophages proliferate, accumulate massive amounts of cholesterol, and become lipid droplet-loaded “foam cells,” resulting in their retention in the lesion. Atherosclerosis is further characterized by the accumulation of M1-like macrophages and secretion of characteristic cytokines and chemokines. Priming of macrophages is sufficient to promote increased macrophage infiltration and inflammation in aorta, exacerbating atherosclerosis. […] Therefore, we will use Ldlr^−/− mice with a hypercholesterolemic background to study atherosclerosis development, which has several advantages: (1) cholesterol in Ldlr^−/− mice is mainly restricted to LDL particles resembling the situation in humans; (2) because of the minor importance of Ldlr in bone marrow derived cells related to atherosclerosis, the Ldlr^−/− mice are a very suitable model to study the role of candidate genes in these cells; (3) initiation of atherosclerotic plaque development can be highly controlled, as atherosclerosis will develop only upon feeding a high-fat/high-cholesterol diet.
Atherogenesis is determined by “en face” preparation of the entire aorta and Sudan IV staining to determine lipid infiltration as a measure for lesion surface as described in Gordts et al. (Arterioscler Thromb Vasc Biol. 29:1258-64 (2009)). In addition, the heart is isolated for sectioning of the aortic root to determine aortic root lesion area and qualitative assessment of the plaque phenotype. Aortic root cross-sectional atherosclerosis is measured by cutting 10 μm paraffin sections starting at the aortic valve plane and covering 1,000 μm in 100-μm increments. Two approaches are used to assess if 3′SL administration affects plaque stability and inflammatory cell composition in atherosclerotic plaques. Sections are immunostained using various antibodies to identify smooth muscle cells and macrophages and apoB content as well as the presence of oxidation-specific antibodies reflective of OxLDL. The extracellular content is visualized via staining using Oil red O (lipids), Hematoxylin and Eosin (necrotic core), Movat Pentachrome (proteoglycans), Masson-Goldner (collagen) and Verhoeffs van Gieson (elastin) staining protocols. As a measurement of the clinically relevant plaque vulnerability/stability in advanced lesions, fibrous cap thickness is determined by comparing serial sections each stained for smooth muscle cells and collagens, and the extent of necrosis will be quantified using imaging techniques as described in Gordts P L et al. (Cell Metabolism 20:813-26 (2014)). […]

IL-6 = assay: Attenuation of IL-6 cytokine expression (IC50); format: cell-based
Protocol: as §1

[3] = test system: mouse macrophage cell line (RAW246); assay: LPS-induced M1 polarization and cytokine expression in mouse macrophage cell line; format: cell-based; conditions: preliminary results
Protocol: as §1
(§2) Here, the aim is to test whether the results translate to in vivo efficacy in a short-term and a long-term disease model of chronic inflammation. Rheumatoid arthritis (RA) is an inflammatory disorder that affects approximately 1% of the adult population worldwide. It is characterized by systemic and local inflammation that leads to cartilage and bone destruction. Collagen antibody-induced arthritis (CAIA) is a simple RA mouse model that can be used to address questions of pathogenic mechanisms and to screen candidate therapeutic agents. Arthritis is induced by the systemic administration of a cocktail of monoclonal antibodies that target various regions of collagen type II, which is one of the major constituents of articular cartilage matrix proteins, together with LPS. […]

[4] = test system: primary bone marrow derived macrophages (BMDM); assay: LPS-induced M1 polarization and cytokine expression in primary bone marrow derived macrophages; format: cell-based; conditions: primary mouse cells; preliminary results
Protocol: as §1, §2

[5] = summary statement, lipid metabolism

| Compound | IC50 (IL-1β) [µg/mL] | down-stream activation of the MAPK pathway (MAPK pathway) | cytokine expression ([1]; LPS-activated Thp-1 cells) | LPS-induced M1 polarization and subsequent cytokine expression (IL-1b, IL-6, etc. mRNA and protein levels) ([1]; human cell line, preliminary results) | plasma triglycerides (TG) levels ([2]; mice on high fat diet, 3′SL twice daily 90 mg/gavage for 6 weeks vs vehicle, FIG. 2A) | cholesterol levels ([2]; mice on high fat diet, 3′SL twice daily 90 mg/gavage for 6 weeks vs vehicle, FIG. 2B) | lesion area of atherosclerotic lesions (En Face) ([2]; mice on high fat diet, 3′SL twice daily 90 mg/gavage for 6 weeks vs vehicle, FIG. 3A) | aortic plaque size ([2]; mice on high fat diet, 3′SL twice daily 90 mg/gavage for 6 weeks vs vehicle, FIG. 3B) | inflammation in the liver, adipose tissue and arterial vessel wall ([2]; summary statement) | systemic secretion of pro-inflammatory cytokines like IL-1β and IL-6 ([2]; summary statement) | lipase activity [2, 5] | postprandial lipid clearance [2, 5] | IC50 (IL-6; cell type not given) [µg/mL] | LPS-induced M1 polarization and subsequent cytokine expression (IL-1b, IL-6, etc. mRNA and protein levels) [3] | LPS-induced M1 polarization and subsequent cytokine expression (IL-1b, IL-6, etc. mRNA and protein levels) [4] | therapeutic effect (IL-6; test not specified, stated directly after the 3′SL cytokine IC50 values) |
| --- | --- | --- | --- | --- | --- | --- | --- | --- | --- | --- | --- | --- | --- | --- | --- | --- |
| CC(=O)NC1C(O)CC(OC2C(O)C(CO)OC(OC(C(O)CO)C(O)C(O)C=O)C2O)(C(=O)O)OC1C(O)C(O)CO (stereo not drawn) [3′SL, 3′-sialyllactose] | ~44.4 (≈ 70.1 µM) | regulate down-stream activation | effectively reduced | attenuates | lower plasma triglyceride levels; also recorded: significant decrease | lower cholesterol levels; also recorded: significant decrease | smaller lesion areas; also recorded: significantly reduced in size | smaller sized plaques; also recorded: significantly reduced | attenuate | suppresses | promoting | promoting | ~16.5 (≈ 26 µM) | attenuates | attenuates | – |
| CC(=O)N[C@H]1[C@H]([C@H](O)[C@H](O)CO)O[C@@](OC[C@H]2O[C@@H](O[C@H]3[C@H](O)[C@@H](O)[C@H](O)O[C@@H]3CO)[C@H](O)[C@@H](O)[C@H]2O)(C(=O)O)C[C@@H]1O [6′SL, 6′-sialyllactose] | – | – | – | – | – | – | – | – | attenuate | suppresses | – | – | – | – | – | therapeutic effect |
